According to ChEMBL document CHEMBL2157996, “Thioglycine and L-thiovaline: biologically active H₂S-donors” (Bioorg Med Chem, 2012):
One block for each compound: values may come before it. Activity calls are given as the source filed them. No cut-off for these calls is given here.

Assays:
[1] = Drug degradation in Hanks buffered salt solution assessed as formation of glycine N-carboxyanhydride at 37 degC; format: physicochemical; details: buffer
[2] = Induction of H2S production at 200 uM measured every 15 sec to 1 min by thiobimane fluorescent method
[3] = Induction of H2S production after 15 mins by methylene blue method; format: physicochemical; details: 0.25 h
[4] = Vasodilatory activity in Wistar rat RASMC cells assessed as increase in cGMP levels after 5 mins by enzyme immunoassay; format: functional, cell-based
[5] = Vasodilatory activity in Wistar rat RASMC cells assessed as increase in cGMP levels at 100 uM after 5 mins by enzyme immunoassay relative to control; format: functional, cell-based
Rattus norvegicus [6] = assay: Induction of H2S release in Sprague-Dawley rat plasma assessed as increase in H2S levels at 5 mg/kg, ip upto 8 hrs by amperometry; format: functional, organism-based; design: dose 5 mg/kg
[7] = Induction of H2S production at 100 uM by amperometry; format: physicochemical
[8] = Stability of the compound assessed as compound remaining at 40 degC after 48 hrs by NMR spectroscopy in the presence of NaHCO3; format: physicochemical; details: NaHCO3 present; read-out: Stability
Rattus norvegicus [9] = assay: Induction of H2S release in Sprague-Dawley rat plasma assessed as increase in H2S levels at 5 mg/kg, ip after 30 mins by amperometry; format: functional, organism-based; design: dose 5 mg/kg
[10] = Stability of the compound assessed as compound remaining at 40 degC after 36 hrs by NMR spectroscopy in the presence of NaHCO3; format: physicochemical; details: NaHCO3 present; read-out: Stability
[11] = Induction of H2S production after 60 mins by thiobimane fluorescent method; format: physicochemical; details: 1 h
[12] = Vasodilatory activity in Wistar rat RASMC cells assessed as increase in cGMP levels up to 3 mM after 5 mins by enzyme immunoassay; format: functional, cell-based
[13] = Stability of the compound assessed as compound remaining at 25 degC after 24 hrs by NMR spectroscopy in the presence of NaHCO3; format: physicochemical; details: NaHCO3 present; read-out: Stability
[14] = Stability of the compound assessed as compound remaining at 40 degC after 24 hrs by NMR spectroscopy in the presence of NaHCO3; format: physicochemical; details: NaHCO3 present; read-out: Stability
[15] = Induction of H2S production by sodium nitroprusside assay; format: physicochemical
[16] = Stability of the compound assessed as compound remaining at 40 degC after 60 hrs by NMR spectroscopy in the presence of NaHCO3; format: physicochemical; details: NaHCO3 present; read-out: Stability
Rattus norvegicus [17] = assay: Induction of H2S release in Sprague-Dawley rat plasma assessed as increase in H2S levels at 5 mg/kg, ip by amperometry; format: functional, organism-based; design: dose 5 mg/kg; details: TDE = time-dependent effect
[18] = Induction of H2S production by amperometry; format: physicochemical
[19] = Stability of the compound assessed as compound remaining at 40 degC after 72 hrs by NMR spectroscopy in the presence of NaHCO3; format: physicochemical; details: NaHCO3 present; read-out: Stability

Drug metabolism [1]: Active
Activity [2]: Active
Activity [3]: Active
Compound: CC(C)[C@H](N)C(=O)S
Activity [4]: Dose-dependent effect

Compound: CC(C)[C@H](N)C(=O)O
Activity [5]: inactive

Compound: NCC(=O)O
Activity [5]: inactive

Drug metabolism [1]: Active
Activity [2]: Active
Activity [3]: Active
Activity [7]: Active
remaining at 48 h [8]: 76%
remaining at 36 h [10]: 83%
Activity [11]: Active
remaining at 24 h [13]: 100%
remaining at 24 h [14]: 88%
Activity [15]: Active
remaining at 60 h [16]: 72%
Activity [18]: Dose-dependent effect
remaining at 72 h [19]: 85%
Compound: NCC(=O)S [THIOGLYCIN]
Activity (Rattus norvegicus [6]): Active
Activity (Rattus norvegicus [9]): Active
Activity [4]: Dose-dependent effect
Activity [12]: Active
fold change (FC) [5]: 10
Activity (Rattus norvegicus [17]): tde
